Results from a melting point compilation (Tetko et al.; mined from patent text by program, amines drawn as free bases though some values may be those of a salt).

First: OCC[C@H]1[C@@H]2O[C@@H]2C(F)(F)[C@@H]1O
Second: CC1CC2=CC(=O)CCC2C2CCC3(C)C(O)CCC3C12 (stereo unspecified)
The melting point of the first is lower: 59 to 59.5 °C for the first, 144 to 146 °C for the second.

Compared with `CCC(=O)C1C(=O)CC(c2ccccc2Cl)CC1=O` (stereo unspecified), `CC(=O)NC1CCN(Cc2ccccc2)C1C` (stereo unspecified) is lower in melting point: 63 to 64 °C for the first, 51 to 54 °C for the second.

Compared with `O=C(C=Cc1ccc(C(F)(F)F)cc1)N1CCOCC1`, `O=C(Oc1ccc2c(=O)cc(N3CCOCC3)oc2c1)c1ccccc1` is higher in melting point: 142 to 144 °C for the first, 204 to 206 °C for the second.

First: CC(CN(C)S(C)(=O)=O)n1nnc2cc3c(=O)n(C4CC4)nnc3cc2c1=O (stereo unspecified)
Second: CC1=NN(c2ccc3c(=O)n(CC(C)C)c(CN)c(-c4ccccc4)c3c2)CO1
The melting point of the first is lower: 170 to 172 °C for the first, 179 to 181 °C for the second.

First: COc1ccc([N+](=O)[O-])cc1OC(F)F
Second: Cc1ncn(-c2ccc([N+](=O)[O-])cc2F)n1
The melting point of the first is lower: 48 to 49 °C for the first, 105 to 107 °C for the second.

Compared with `CON(c1ccc([N+](=O)[O-])cc1Cl)S(=O)(=O)c1cccc(C(F)(F)F)c1`, `CC(C)c1ccc(S(=O)(=O)n2c(CO)cc3cc(C(F)(F)F)ccc32)cc1` is higher in melting point: 95.5 to 96.5 °C for the first, 112 °C for the second.

First: COc1ccccc1CNc1ccc2cc(Nc3nnn(C(C)(C)C)n3)ccc2n1
Second: C#CCOc1ccccc1-n1cnc2cc(Nc3nnc(C)c4ccccc34)ccc21
The melting point of the first is higher: 156 °C for the first, 88 to 90 °C for the second.

First: O=C(CC(=O)c1ccccc1)Nc1cc(Cl)c(Cl)cc1[N+](=O)[O-]
Second: COC(=O)c1csc(C(=O)CBr)c1OC(=O)c1ccccc1
The melting point of the first is higher: 177 to 179 °C for the first, 115 to 118 °C for the second.

Compared with `O=C(Nc1n[nH]c(=S)s1)N[C@@H](Cc1ccccc1)C(=O)N1CCN(c2ncccn2)CC1`, `NC(=O)Nc1ccccc1CCc1n[nH]c2c1c(=O)n(-c1ccccc1)c1ncccc21` is higher in melting point: 235 to 237 °C for the first, 300 to 305 °C for the second.

First: Cc1c(-c2ccc(F)cc2)nc(-c2ccccc2)n1C(C)C
Second: CCOC(=O)c1ccc(-c2coc(-c3ccccc3)n2)cc1
The melting point of the first is higher: 161 to 162 °C for the first, 110 to 112 °C for the second.

First: N#Cc1c(N)nc2ccccc2c1Nc1cccs1
Second: O=c1nc(-c2ccccn2)sc2ccc(O)cc12
The melting point of the first is lower: 208 to 209 °C for the first, 313 to 315 °C for the second.

First: c1ccc(-c2cn([C@H]3CN4CCC3CC4)nn2)cc1
Second: CCCCN1C(=O)N(C2CCN(CC3CCCCC3)CC2)C(c2ccccc2)c2ccccc21 (stereo unspecified)
The melting point of the first is higher: 132 °C for the first, 115 to 117 °C for the second.

`CC(=O)Nc1c(C(=O)c2ccc(O)c(O)c2)[nH]c2cc(Cl)ccc12` and `CCc1ccnc(C(=O)c2[nH]c3cc(Cl)ccc3c2CC(=O)O)c1F` cannot be ordered by melting point: 193 to 200 °C for the first, 193 to 194 °C for the second.

Compared with `Clc1cnn2c(-c3cccnc3)ccnc12`, `O=c1oc(-c2cccnc2)cc(O)c1SCc1ccccc1` is lower in melting point: 225 to 226 °C for the first, 183 to 184 °C for the second.

Compared with `c1ccc2scnc2c1`, `OCc1ncc(-c2cccs2)s1` is lower in melting point: 134 to 135 °C for the first, 67 to 68 °C for the second.

First: CCOC(=O)/C=C(C)/C(F)=C/C=C(\C)C=O
Second: CCOC(=O)c1oc(SC)c2c1CCC(Br)C2=O (stereo unspecified)
The melting point of the first is lower: 70 to 74 °C for the first, 130 to 131 °C for the second.

`O=C1CC=C(c2c[nH]c3cc([N+](=O)[O-])ccc23)CC1` and `N#Cc1ccc(Nc2nc(Cl)ccc2[N+](=O)[O-])cc1` cannot be ordered by melting point: 175 to 177 °C for the first, 175 to 178 °C for the second.

Compared with `COc1cc(Br)ccc1C(C)CC(=O)C(=O)Nc1ccc2c(c1)COC2=O` (stereo unspecified), `COc1cccc2cc(C(=O)Oc3ccc(Cl)cn3)c(=O)oc12` is higher in melting point: 136 to 140 °C for the first, 203 to 204 °C for the second.

First: CC[C@H]1C(=O)N(S(=O)(=O)c2ccc3ccccc3c2)[C@H]2CCN(C(=O)OCc3ccccc3)[C@H]12 (relative stereo)
Second: Cc1ccccc1C(=O)Nc1cccc(OCc2ccccc2)c1
The melting point of the first is higher: 156 °C for the first, 114 to 115 °C for the second.

First: N#Cc1nn(-c2c(Cl)cc(Cl)cc2Cl)c(N)c1C#N
Second: O=c1[nH]c2cc(Cl)cc(Cl)c2oc1=O
The melting point of the first is lower: 267 to 271 °C for the first, 312 °C for the second.

First: CC(=O)c1cc2c(cc1C=O)C(C)(C)CCC2(C)C
Second: COc1cccc(C2OCCC(C)(C)C2(O)C(C)C)c1 (stereo unspecified)
The melting point of the first is higher: 116 °C for the first, 56 to 56.9 °C for the second.

Compared with `CN(C)Cc1cccc(NCCCNc2nc(N)nn2C)c1`, `Clc1cccc(Cc2ccc(OCCCn3cccn3)c(Cl)c2)c1` is lower in melting point: 101 to 102 °C for the first, 52.5 °C for the second.

Compared with `COc1ccc2c(c1)CCc1cc(Nc3ccc(F)cc3F)ccc1C2=O`, `O=C(Nc1ccc(F)cc1)c1ccccc1F` is lower in melting point: 157 °C for the first, 102 to 104 °C for the second.

Compared with `O=C(O)CSCCCCCn1nc(-c2ccccc2)c(-c2ccccc2)c1-c1ccccc1`, `Nc1cc(C(=O)O)cc(SCc2ccccn2)c1-c1ccccc1` is higher in melting point: 140 to 142 °C for the first, 210 to 211 °C for the second.

Compared with `CSc1cc(C)c(O)cc1C`, `CC(C)c1ccc(NN)c(Cl)c1` is lower in melting point: 98 to 99 °C for the first, 64 to 66 °C for the second.

Compared with `NC(=O)c1cnc2c(N)cccc2c1`, `CCNc1nc(CC)c(C(=O)c2ccc(N)c([N+](=O)[O-])c2)s1` is higher in melting point: 164 to 165 °C for the first, 210 to 212 °C for the second.

Compared with `CC(C)(C)C(NC(=O)c1ccc(I)cc1)NC(=NC#N)Nc1cccnc1` (stereo unspecified), `N#Cc1ccc(C(=O)CNc2ccc(Br)cc2)cc1` is lower in melting point: 180 to 183 °C for the first, 154 to 157 °C for the second.

First: COc1ccncc1Nc1nc(N2CCOCC2)nc(-n2c(C(F)F)nc3c(OC)cccc32)n1
Second: CS(=O)(=O)N1CCCn2c(nc3c(N)nc4cc(-c5cccnc5)ccc4c32)C1
The melting point of the first is lower: 239 to 241 °C for the first, 302 °C for the second.

Compared with `CCOC(=O)C1=C(C)NC(C)=C(C(=O)OCCN2CCN(C(c3ccc(C)cc3)c3ccc(C)cc3)CC2)C1c1cccc([N+](=O)[O-])c1` (stereo unspecified), `O=C(c1ccccc1C(c1ccc(O)cc1)c1ccc(O)cc1)N1CC2CCC(CC2)C1` is higher in melting point: 82 to 85 °C for the first, 164 to 166 °C for the second.

First: COc1ccc(N2C(=O)C(=C3CCCN3C)c3ccccc32)cc1F
Second: O=C1C(=O)N(CC(F)(F)F)c2ccccc21
The melting point of the first is lower: 68 to 71 °C for the first, 161 to 163 °C for the second.

First: c1ccc(C(CCOc2ccc(CCC3=NCCCO3)cc2)(c2ccccc2)c2ccccc2)cc1
Second: CC(C)(C)Sc1c(CC(C)(C)C(=O)O)n(Cc2ccc(Cl)cc2)c2c(OCc3ccc4ccccc4n3)cccc12
The melting point of the first is lower: 60 to 63 °C for the first, 206 °C for the second.

Compared with `CCCCCc1cc(-c2ccc(F)cc2C(C)O)c(C(C)C)nc1C(C)C` (stereo unspecified), `C[C@@H](C(=O)OCCCCNc1cccc2c1C(=O)c1ccccc1C2=O)N(C)C(=O)OC(C)(C)C` is lower in melting point: 84 to 86 °C for the first, 62 °C for the second.

First: COc1ccc(C2CCCCC2)cc1-c1csc(NC(=O)C2CCN(C(=O)OC(C)(C)C)CC2)n1
Second: C[C@@H]1C[C@@H]([C@H](CC2CCCCC2)NC(=O)[C@H](Cc2cscn2)NC(=O)OC(C)(C)C)OC1=O
The melting point of the first is higher: 193 °C for the first, 118 to 120 °C for the second.

First: CC(C)C1SCC(=O)CC1=O (stereo unspecified)
Second: CC(C)(C)c1cccc2c1C(=O)NS2(=O)=O
The melting point of the first is lower: 71 °C for the first, 185 to 187 °C for the second.

First: CC(C)N(Cc1cccs1)S(=O)(=O)N[C@@H](Cc1ccc(NC(=O)c2cc(Cl)cc(Cl)c2)cc1)C(=O)O
Second: C#CCNC(=O)c1cccc(-c2cccc(OCCc3ccc(OC)c(OC)c3)n2)c1
The melting point of the first is lower: 122 °C for the first, 142 to 143 °C for the second.

First: CCCc1c(OCCCOc2ccccc2)ccc2c1OC(CCC(=O)O)(CCC(=O)O)CC2=O
Second: CCCOc1ccc2c(c1)C(c1ccc(OC)cc1OCC(=O)O)C(C(=O)O)C2c1cc2c(cc1OC)OCO2 (stereo unspecified)
The melting point of the first is lower: 162 °C for the first, 188 to 190 °C for the second.

First: COc1cc(NC(=O)NS(=O)(=O)c2ccccc2C)nc(OC)n1
Second: CCOC(=O)CC(NC(=O)c1ccccc1)C(=O)C(C)C (stereo unspecified)
The melting point of the first is higher: 174 to 175 °C for the first, 44 to 46 °C for the second.

First: CCc1nc2cc(N3CCN(C)CC3)nc(CC)n2n1
Second: CCN(CC)C(=O)Cc1c(-c2ccc(O)cc2)nn2c(C)cc(C)nc12
The melting point of the first is lower: 87 to 88 °C for the first, 242 to 247 °C for the second.

First: O=c1c2c(Cc3ccc(OC(F)(F)F)cc3)n[nH]c2c2cccnc2n1-c1cccc(OC(F)(F)F)c1
Second: CN1C(=O)C(c2ccc(OC(F)(F)F)c(F)c2)(c2ccc(F)c(-c3cncnc3)c2)N=C1N (stereo unspecified)
The melting point of the first is higher: 129 to 132 °C for the first, 102 to 110 °C for the second.

First: Cc1ccc(S(=O)(=O)N2C(=O)N(c3ccc(Cl)cc3)C(C)(O)C2O)cc1 (stereo unspecified)
Second: Cc1ccc(S(=O)(=O)Oc2ccc(S(=O)(=O)CC(=O)C(C)C)cc2)cc1
The melting point of the first is lower: 60 to 70 °C for the first, 156 to 157 °C for the second.

First: N#Cc1ccc2c(c1)C(=O)N1CCC[C@@H]1CO2
Second: Cc1ccc(NC(=O)NCc2ccc3c(c2)CN(C2CCC(=O)NC2=O)C3=O)cc1C(F)(F)F (stereo unspecified)
The melting point of the first is lower: 164 to 165 °C for the first, 273 to 275 °C for the second.

First: CC(=O)OC1CSC(Oc2ccc(-c3ccccn3)cc2)C(OC(C)=O)C1OC(C)=O (stereo unspecified)
Second: CC(C)(C)OC(=O)Nc1ccc(-c2ccc(OC(F)(F)F)cc2)cc1[N+](=O)[O-]
The melting point of the first is lower: 125 to 130 °C for the first, 145 to 147 °C for the second.

First: CNC(=O)n1nc(Oc2c(Cl)cc(C(F)(F)F)cc2[N+](=O)[O-])cc1C
Second: COC(=O)C12COc3cc(C(F)(F)F)ccc3C1=NN(C(=O)Nc1ccc(C(F)(F)F)cn1)C2 (stereo unspecified)
The melting point of the first is lower: 140 to 142 °C for the first, 194 to 195 °C for the second.

First: COC(=O)CCC(C)C1CCC2C3CCC4CCCCC4(C)C3CCC12C (stereo unspecified)
Second: CCOC(=O)C1=C[C@@H](OC(CC)CC)[C@@H](NC(C)=O)[C@H](N=[N+]=[N-])[C@@H]1OS(C)(=O)=O
The melting point of the first is lower: 87 °C for the first, 96 to 98 °C for the second.

Compared with `Fc1ccc(Cn2c(NC3CCN(CCNc4ncc[nH]4)CC3)nc3ccccc32)cc1`, `O=C(O)c1ccc(SC(Cn2ccnc2)c2ccccc2O)cc1` (stereo unspecified) is lower in melting point: 226 °C for the first, 186 to 190 °C for the second.

Compared with `C=C(c1ccc(Br)cc1)c1ccc(OC)cc1`, `O=C(O)c1ccc(-c2ccc(O)c(F)c2)cc1` is higher in melting point: 91.2 to 92.6 °C for the first, 254 to 256 °C for the second.

First: CCCCN(CCCC)CCCOc1ccc(-c2cn3cccc(C)c3n2)c(C)c1
Second: CCCCc1cn2nc3c(c(=O)n(CCC)c(=O)n3Cc3ccccc3)c2n1C
The melting point of the first is lower: 78 to 81 °C for the first, 139 to 140 °C for the second.

First: CCCCc1cc(NN)n2nccc2n1
Second: CCOC(=O)C1C=Nc2c(ccc3ncccc23)N1O (stereo unspecified)
The melting point of the first is lower: 126 to 129 °C for the first, 223 to 225 °C for the second.

First: C=CCN1C(C)(C)CC(=C2CC(C)(C)N(CC=C)C(C)(C)C2)CC1(C)C
Second: CC#CCOc1ccc(C=O)cc1OC
The melting point of the first is higher: 147 to 148 °C for the first, 90 to 92 °C for the second.

First: NC(=NO)c1c(C(F)(F)F)ccc(F)c1F
Second: C#CCOc1cc(C(=O)O)n(-c2ncc(Cl)cc2Cl)n1
The melting point of the first is lower: 114 to 115 °C for the first, 151 to 157 °C for the second.

`CC(=Cc1cccc2ccccc12)[N+](=O)[O-]` gave a melting point of 64 to 67 °C.
